Assay results from patent US7049293B2, “Peptide and osteogenetic accelerator” (Kyocera Corporation, priority 1998, dated 2006).
Residues, ends and D or L forms follow the SMILES beside them.

How the values were obtained:
[1] = tested on: C3H10T1/2 cells; test: Cytotoxicity test in vitro, C3H10T1/2 cells (protein concentration, BCA); type: cell-based; conditions: 100 μg/ml, six days
Protocol: C3H10T1/2 cells were dispersed in Eagle's MEM containing 10% fetal bovine serum, pipetted on a 96-well culture plate, 3750 cells per well, and incubated at 37° C. in the presence of 5% CO2. Into the wells, a PBS solution of the peptide described in Example 1 was added so that the resulting concentration became 100 μg/ml, followed by incubation under the same conditions for six days. Then the culture medium was removed and a cytolytic solution (0.1M Tris-HCl buffer containing 1% Triton X-100, pH 9) was added to dissolve cells. Then the concentration of protein was determined using BCA reagent (produced by Funakoshi Kabushiki Kaisha).

[2] = tested on: rat bone marrow cells; test: Cytotoxicity test in vitro, rat bone marrow cells (colony count, Giemsa staining); type: cell-based, rats (Lewis); conditions: 30 μg/ml, seven days
From the text: Femurs were aseptically taken out of six-week-old female rats (Lewis, purchased from Nippon SLC). Both ends of the femurs were cut off. Then bone marrow was extruded into centrifugal tubes by means of Eagle's MEM containing 10% of fetal bovine serum using an injection syringe with a 21 G injection needle. The bone marrow cells were sufficiently dispersed with a pipette and filtered through a 40 μm filter to remove agglutinations. The resulting bone marrow cells were centrifuged with Eagle's MEM containing 10% of fetal bovine serum three times (1200 rpm, 5 min.×3), and then the number of cells was counted. The bone marrow cells were diluted with Alpha MEM containing 10% of fetal bovine serum so that relatively large bone marrow cells were present in a concentration of 10^6/ml. The dilution was pipetted 10 ml in each culture flask having a culture area of 25 cm^2 and incubated at 37° C. in the presence of 5% CO2. […]
Twenty-four hours after the incubation was started, culture medium was removed and Alpha MEM containing 10% of fetal bovine serum and 30 μg/ml of the peptide described in Example 1 was added to the cells under culture. […] After seven days, the number of formed colonies of bone marrow cells was counted using Giemsa staining. […]

[3] = tested on: rats; test: Acute toxicity test on rats; type: in vivo, rats (Lewis); conditions: 500 μg intraperitoneally three times in a week
Protocol: A PBS solution of 500 μg of the peptide described in Example 1 was intraperitoneally administered to six-week-old female rats (Lewis, purchased from Nippon SLC) three times in a week. […] Neither were the rats observed to have a poor coat of fur or any abnormal behavior during the test.

Structure (SMILES): CC[C@H](C)[C@H](NC(=O)[C@H](C)NC(=O)[C@H](CO)NC(=O)[C@H](CC(C)C)NC(=O)[C@H](CCC(=O)O)NC(=O)[C@@H](NC(=O)[C@@H]1CCCN1C(=O)[C@@H](NC(=O)[C@H](CS)NC(=O)[C@H](CS)NC(=O)[C@H](C)NC(=O)[C@H](CCCCN)NC(=O)[C@@H]1CCCN1C(=O)[C@@H](NC(=O)[C@H](CCCCN)NC(=O)[C@H](CO)NC(=O)[C@H](CC(N)=O)NC(=O)[C@@H](NC(=O)[C@H](CO)NC(=O)[C@@H](N)CC(N)=O)C(C)C)[C@@H](C)CC)C(C)C)[C@@H](C)O)C(=O)O [Example 1] (H-NSVNSKIPKACCVPTELSAI-OH)
- cytotoxicity (conclusion) ([1]; C3H10T1/2 cells): did not have cytotoxicity
- concentration of protein ([1]; n=12, PBS control 0.07±0.03): 120 ± 20 µg/mL
- number of formed colonies of bone marrow cells ([2]; average per flask, PBS control 89): 101
- cytotoxicity (conclusion) ([2]; rat bone marrow cells): did not have cytotoxicity
- increase in weight ([3]; after a week, n=6, PBS control 23±5): 25 ± 6 g
- acute toxicity (conclusion) ([3]; no poor coat of fur or abnormal behavior): no significant acute toxicity
